This data set can be described thus: photoluminescence quantum yield (fraction); solvent given as SMILES.

On to `CC(C)(C)c1ccc(C2=C(c3ccc(-n4c5ccc(C(C)(C)C)cc5c5cc(C(C)(C)C)ccc54)cc3)S(=O)(=O)c3c2sc(-c2ccc(-n4c5ccc(C(C)(C)C)cc5c5cc(C(C)(C)C)ccc54)cc2)c3-c2ccc(C(C)(C)C)cc2)cc1`, for which the photoluminescence quantum yield (in C1CCOC1) amounted to 0.164.
`COc1ccc2c3ccc(OC)cc3n(-c3ccc(-c4nnc(-c5c(C(C)C)cc(C(C)C)cc5C(C)C)o4)cc3)c2c1` displayed a photoluminescence quantum yield (in Cc1ccccc1) of 0.03.
For the compound `N#Cc1cccc2c(N)c(-c3nn([C@H]4C[C@H](O)[C@@H](CO)O4)c4ncnc(N)c34)ccc12`, the photoluminescence quantum yield was 0.47 (in C1COCCO1); 0.23 (in CC#N); 0.19 (in CC(C)O); 0.13 (in CCO); 0.29 (in CCOC(C)=O); 0.21 (in CN(C)C=O). The photoluminescence quantum yield was found to be 0.07 (in CO), 0.18 (in CS(C)=O), 0.12 (in OCC(O)CO) and 0.08 (in OCCO).
The compound `F[B-]1(F)n2c(cc(Br)c2Br)C(c2ccccc2)=C2C=C(Br)C(Br)=[N+]21` gave a photoluminescence quantum yield (in ClC(Cl)Cl) of 0.98.
For the compound `CCC1=C(C)C(=O)n2c1cc1c(c(C)c(C(=O)OC)n1C)c2=O`, the photoluminescence quantum yield came out at 0.03 (in C1CCCCC1); 0.66 (in CO); 0.8 (in CS(C)=O); 0.71 (in ClC(Cl)Cl); 0.18 (in c1ccccc1).
`COc1ccc(-c2cc3c(ccc4sc(/C=C/c5cccs5)cc43)s2)cc1`: the photoluminescence quantum yield (in ClCCl) came to 0.28.
`CCOC(=O)CSc1nc2c(c(C#N)c1C#N)CCCC2`: the photoluminescence quantum yield (in c1ccccc1) came to 0.04.
In the case of `CCN1/C(=C\c2c(-c3ccc(N(C)C)cc3)c(=O)c2=O)C=Cc2ccccc21`, the photoluminescence quantum yield reads like this: (in C1CCCCC1) 0.0276; (in Cc1ccccc1) 0.0226; (in ClCCl) 0.001.
For the setting “in CCO”, `CC1(C)CC(/C=C/c2ccc(N3CCOCCOCCOCCOCC3)cc2)=CC(=C(C#N)C#N)C1` yielded a photoluminescence quantum yield of 0.111.
Consider `CCn1c2ccccc2c2cc(/C=C/c3cccc(/C=C/c4ccc5c(c4)c4ccccc4n5CC)[n+]3CCCS(=O)(=O)[O-])ccc21`, for which the photoluminescence quantum yield came out at 0.1 (in C1CCOC1), 0.03 (in CC#N), 0.03 (in CC(C)=O) and 0.08 (in Cc1ccccc1).
For `Cc1c(COC(=O)Cc2cccc3ccccc23)n2c(OCC(=O)Cc3cccc4ccccc34)c(C)c(=O)n2c1=O`, the photoluminescence quantum yield (in CCO) is 0.84.
Regarding `CC(C)[Si]1(C(C)C)c2cc(C#N)ccc2-c2ccc(N(C)C)cc21`, the photoluminescence quantum yield runs as follows: (in C1CCCCC1) 0.6; (in CC#N) 0.65; (in CCO) 0.74; (in CCOCC) 0.66; (in CS(C)=O) 0.51; (in ClCCl) 0.79. This compound also showed a photoluminescence quantum yield (in c1ccccc1) of 0.62.
Turning to `O=Cc1ccc2c(c1)c1ccccc1n2-c1cc2ccccc2c2ccccc12`, the photoluminescence quantum yield by setting is: (in CC#N) 0.015; (in CCCCC) 0.025; (in Cc1ccccc1) 0.022; (in ClCCl) 0.03.
In the case of `CCCCCCCCc1ccc(-n2c3c(c4c2c2c(n4-c4ccc(CCCCCCCC)cc4)-c4ccccc4NB2c2ccccc2)B(c2ccccc2)Nc2ccccc2-3)cc1`, for the setting “in Cc1ccccc1”, the photoluminescence quantum yield stood at 0.7.
Take `CC(C)(C)NC(=O)c1ccc(-c2ccccc2)c2ccc3c4ccccc4c4ccccc4c3c12`: the photoluminescence quantum yield (in ClCCl) worked out at 0.08.
Take `Cc1ccc(-c2ccc(-c3ccc(-c4ccc(C)cc4)cc3/C(=C(/c3ccccc3)c3cc(-c4ccc(C)cc4)ccc3-c3ccc(-c4ccc(C)cc4)cc3)c3ccccc3)cc2)cc1`: the photoluminescence quantum yield (in C1CCOC1) was determined as 0.3.
For `CCCCCCn1c2ccccc2c2cc(/C=C/c3cc(=O)oc4cc(C)ccc34)ccc21`, under “in ClC(Cl)Cl”, the photoluminescence quantum yield was 0.38.
As to `COC(=O)c1ccc(C2=C3C(C)=CC(C)=[N+]3[B-](F)(F)n3c(/C=C/c4c[nH]cn4)cc(C)c32)cc1`, for the setting “in ClC(Cl)Cl”, the photoluminescence quantum yield came to 0.93.
`N#C/C(=C\c1ccc(C=C(c2ccccc2)c2ccccc2)cc1)c1ccc([N+](=O)[O-])cc1` displayed a photoluminescence quantum yield (in C1CCOC1) of 0.046.
Regarding `N#Cc1ccc(C[C@H](N)C(=O)O)cc1`, the photoluminescence quantum yield came out at 0.031 (in C1CCOC1); 0.026 (in CC#N); 0.071 (in CC(C)O); 0.1 (in CC(O)CO); 0.079 (in CCCCO); 0.074 (in CCCO). Moreover, the photoluminescence quantum yield reads like this: (in CCO) 0.034; (in CO) 0.076; (in NC=O) 0.083; (in O) 0.11; (in O=CO) 0.17.
In turn, `COc1cc(-c2nc3sc4ccccc4c3s2)cc(OC)c1OC` displayed a photoluminescence quantum yield (in CS(C)=O) of 0.6.
With `CCCCCCCCCCCCC(CCCCCCCCCC)Cn1c2cc(/C=C/c3nc4ccccc4s3)c3cccc4c5cccc6c(/C=C/c7nc8ccccc8s7)cc1c(c65)c2c34` (stereo not given), the photoluminescence quantum yield by setting is: (in C1CCCCC1) 0.42; (in CC#N) 0.434; (in Cc1ccccc1) 0.398; (in ClCCl) 0.369.
The compound `CCCCN1C(=S)c2cccc3cccc(c23)C1=S` came in with a photoluminescence quantum yield (in Cc1ccccc1) of 0.01.
As to `F[B-]1(F)n2ccnc2-c2cccc[n+]21`, the photoluminescence quantum yield came out at 0.03 (in C1CCCCC1); 0.44 (in C1CCOC1); 0.28 (in C1COCCO1); 0.28 (in CC#N); 0.03 (in CCCCCC); 0.03 (in CO). The photoluminescence quantum yield (in ClC(Cl)Cl) came out at 0.14.
With `CCCCCCC(CCCCCC)N1C(=O)c2cccc3c(-c4ccc(-c5ccc(OC)cc5)cc4)ccc(c23)C1=O`, the photoluminescence quantum yield stood at 0.5 (in CCCCCC); 0.5 (in CCCCCCCCCCCCCC); 0.56 (in CCCCCCCCCCCO); 0.16 (in CCCCO); 0.15 (in CN(C)C=O); 0.4 (in Cc1ccccc1). This compound also displayed a photoluminescence quantum yield (in ClC(Cl)Cl) of 0.67.
Compound `CC[N+]1(CC)CN2C(=N1)C(C(=O)O)=Cc1c2ccc2ccccc12` gave a photoluminescence quantum yield (in O) of 0.711.
In the case of `CC(C)CCC[C@@H](C)[C@H]1CC[C@H]2[C@@H]3CC=C4C[C@@H](OC(=O)Oc5cc(/C=C/C=C/c6ccc(N(C)C)cc6)ccc5[N+](=O)[O-])CC[C@]4(C)[C@H]3CC[C@]12C`, the photoluminescence quantum yield by setting is: (in C1CCCCC1) 0.29; (in C1COCCO1) 0.08; (in CCCCCCC) 0.28; (in Cc1ccccc1) 0.17.
In the case of `CC1(C)c2ccccc2N(c2ccc(-c3ccc(C#N)c(C#N)n3)cc2)c2ccccc21`, the photoluminescence quantum yield runs as follows: (in Cc1ccccc1) 0.489; (in N#Cc1ccc2c(c1)c1ccccc1n2-c1cccc(-n2c3ccccc3c3ccccc32)c1) 0.904.
Consider `c1ccc(-c2ccc(-c3ccc4c(c3)CCO4)cc2)cc1`, for which, for the setting “in C1CCCCC1”, the photoluminescence quantum yield worked out at 0.66.
`COc1ccc(-c2cc(-c3ccc(C)cc3)nc3c(C#N)c(N4CCCC4)nc(N)c23)cc1`: the photoluminescence quantum yield reads like this: (in CC#N) 0.06; (in c1ccccc1) 0.084.
For `CCCCc1ccc2ccc3cccc4ccc1c2c34`, the photoluminescence quantum yield turned out to be 0.35 (in CCCCCC), 0.31 (in CO) and 0.41 (in ClCCl).
On to `CN1CCc2cc(C3=Cc4cccc[n+]4[B-](F)(F)O3)ccc21`, for which, where the note is “in ClC(Cl)Cl”, the photoluminescence quantum yield came out at 0.639.
For `F[B-]1(F)n2c(nc3c4ccccc4c4ccccc4c32)-c2ccc3ccccc3[n+]21`, the photoluminescence quantum yield (in ClCCl) turned out to be 0.9.
Take `COc1ccc(-c2nnc(-c3cc(-n4c5ccccc5c5ccccc54)c(-n4c5ccccc5c5ccccc54)cc3-c3nnc(-c4ccc(OC)cc4)o3)o2)cc1`: under “in Cc1ccccc1”, the photoluminescence quantum yield amounted to 0.47.
In turn, `O=c1[nH]nc(-c2ccc(/C=C/c3ccc(-c4n[nH]c(=O)o4)cc3)cc2)o1` returned a photoluminescence quantum yield (in CN(C)C=O) of 0.5.
Consider `COc1cc2c(cc1OC)C1=C[C@H](c3ccc(C)cc3)C3(C(C#N)=C(C#N)N1CC2)c1cc(Cl)ccc1-c1ccc(Cl)cc13`, for which the photoluminescence quantum yield (in ClCCl) worked out at 0.00053.
For `Cc1cn2cc(-c3ccc([N+](=O)[O-])cc3)[n-][n+]2c1`, the photoluminescence quantum yield (in ClCCl) was 0.022.
Take `COc1ccc(-c2cc3c(s2)c(-c2ccccc2)cc(=O)n3C)cc1`: the photoluminescence quantum yield reads like this: (in CC#N) 0.42; (in ClCCl) 0.46.
Consider `CCC1(CC)c2ccccc2-c2c1c1c(c3c2C(CC)(CC)c2cc(B(c4c(C)cc(C)cc4C)c4c(C)cc(C)cc4C)ccc2-3)C(CC)(CC)c2cc(B(c3c(C)cc(C)cc3C)c3c(C)cc(C)cc3C)ccc2-1`, for which the photoluminescence quantum yield (in C1CCOC1) worked out at 0.4.
`CCCCC1(CCCC)c2cc(C#Cc3ccc(C=C(c4ccccc4)c4ccccc4)cc3)ccc2-c2ccc(C#Cc3ccc(C=C(c4ccccc4)c4ccccc4)cc3)cc21` yielded a photoluminescence quantum yield (in C1CCOC1) of 0.048.
As for `c1cc2c3c(c1)-c1cccc4cccc(c14)B3c1cccc3cccc-2c13`, the photoluminescence quantum yield (in Cc1ccccc1) came to 0.9.
The compound `CCCCC(CC)Cn1c2cc(C#N)ccc2c2ccc(C#Cc3ccc4ccc5ccc(C#Cc6ccc7c8ccc(C#N)cc8n(CC(CC)CCCC)c7c6)c6ccc3c4c56)cc21` (stereo not given) gave a photoluminescence quantum yield (in ClCCl) of 0.51.
`CC1=C(/C=C/c2ccccc2)C(C)=[N+]2C1=C(c1ccccc1)c1c(C)c(/C=C/c3ccccc3)c(C)n1[B-]2(F)F` showed a photoluminescence quantum yield (in ClC(Cl)Cl) of 0.01.
On the same count and under the same terms, in the case of `CCCCCCN1C(=O)c2cccc3c(-c4ccc(Cl)s4)ccc(c23)C1=O` it was 0.18.
Under “in ClCCl”, `CN(C)c1ccc(/C=C/c2cc(/C=C/c3ccc(N(C)C)cc3)nc(/C=C/c3ccc(N(C)C)cc3)n2)cc1` registered a photoluminescence quantum yield of 0.22.

(Values after the Deep4Chem optical property database.)
